Earlier results, collected in US20090082295A1, “COMBINATIONS AND METHODS OF USING AN IMMUNOMODULATORY OLIGODEOXYNUCLEOTIDE” (PFIZER INC., priority 2005, published 2009).
Structures can show the parent of a compound that is named as a salt.

How the values were obtained:
[1] = test system: mitotic microtubules; conditions: intact tectal plates from mouse embryos
[2] = test system: axonal microtubules; conditions: intact tectal plates from mouse embryos
[3] = test system: mammalian cells; conditions: high concentrations
[4] = combination with cisplatin
[5] = test system: LX-1 human lung xenograft
[6] = test system: CALU-6 human lung xenograft
[7] = test system: NCI-H460 xenograft
[8] = test system: NCI-H520 xenograft
[9] = test system: Lewis lung murine xenograft
[10] = test system: topoisomerase I purified from human and rodent tumor cell lines; conditions: purified enzyme
[11] = test system: rat mammary carcinoma induced by dimethylbenzanthracene (DMBA)
[12] = test system: xenotransplant models of colon cancer; conditions: nude (athymic) mice

## CCC1=C[C@@H]2CN(C1)Cc1c([nH]c3ccccc13)[C@@](C(=O)OC)(c1cc3c(cc1OC)N(C)[C@H]1[C@@](O)(C(=O)OC)[C@H](OC(C)=O)[C@]4(CC)C=CCN5CC[C@]31[C@@H]54)C2 (relative stereo) [vinorelbine, 3′,4′-didehydro-4′-deoxy-C′-norvincaleukoblastine[R—(R*,R*)-2,3-dihydroxybutanedioate (1:2) (salt)]]
[1]
  concentration inhibiting mitotic microtubule formation, inducing a blockade of cells at metaphase: 2 µM
[2]
  concentration producing depolymerization of axonal microtubules: 40 µM

## COc1cc([C@@H]2c3cc4c(cc3[C@@H](O[C@@H]3O[C@@H]5CO[C@@H](C)O[C@H]5[C@H](O)[C@H]3O)[C@H]3COC(=O)[C@H]23)OCO4)cc(OC)c1O [Etoposide, 4′-Demethylepipodophyllotoxin 9-[4,6-0-(R)-ethylidene-β-D-glucopyranoside]]
[3]
  concentration at which lysis of cells entering mitosis is observed: ≥ 10 µg/mL

## Nc1ccn([C@@H]2O[C@H](CO)[C@@H](O)C2(F)F)c(=O)n1 [Gemcitabine, 2′-deoxy-2′,2′-difluorocytidine monohydrochloride (β-isomer)]
[4]
  activity with cisplatin in vitro: dose-dependent synergistic activity
[5]
  activity in combination with cisplatin: showed activity
[6]
  activity in combination with cisplatin: showed activity
[7]
  activity in combination with cisplatin: minimal activity
[8]
  activity in combination with cisplatin: minimal activity
[9]
  interaction with cisplatin: synergistic

## CCc1c2c(nc3ccc(O)cc13)-c1cc3c(c(=O)n1C2)COC(=O)[C@]3(O)CC [SN-38]
[10]
  potency as inhibitor of topoisomerase I relative to irinotecan: approximately 1000 times

## CC/C(=C(\c1ccccc1)c1ccc(OCCN(C)C)cc1)c1ccccc1 [Tamoxifen, (Z)2-[4-(1,2-diphenyl-1-butenyl)phenoxy]-N, Ndimethylethanamine 2-hydroxy-1,2,3-propanetricarboxylate (1:1)]
[11]
  effect on DMBA-induced mammary carcinoma: inhibits the induction of rat mammary carcinoma induced by dimethylbenzanthracene (DMBA) and causes the regression of already established DMBA-induced tumors

## CC[C@]1(O)C[C@@H]2CN(CCc3c([nH]c4ccccc34)[C@@](C(=O)OC)(c3cc4c(cc3OC)N(C)[C@H]3[C@@](O)(C(=O)OC)[C@H](OC(C)=O)[C@]5(CC)C=CCN6CC[C@]43[C@@H]65)C2)C1 [vinblastine]
[1]
  concentration inhibiting mitotic microtubule formation, inducing a blockade of cells at metaphase: 2 µM
[2]
  concentration producing depolymerization of axonal microtubules: 30 µM

## CC[C@]1(O)C[C@H]2CN(CCc3c([nH]c4ccccc34)[C@@](C(=O)OC)(c3cc4c(cc3OC)N(C=O)[C@H]3[C@@](O)(C(=O)OC)[C@H](OC(C)=O)[C@]5(CC)C=CCN6CC[C@]43[C@@H]65)C2)C1 [vincristine]
[1]
  concentration inhibiting mitotic microtubule formation, inducing a blockade of cells at metaphase: 2 µM
[2]
  concentration producing depolymerization of axonal microtubules: 5 µM

## bevacizumab: recombinant humanized monoclonal IgG1 antibody that binds human VEGF
[12]
  effect on microvascular growth and metastatic disease progression: reduction of microvascular growth and inhibition of metastatic disease progression
